Several values for one entry are separate records, joined by “and”; a condition that tells them apart may be missing. Equal values may be shown once.
Legend:
C. albicans (ATCC 10231) = experiment: In vitro antifungal CFU assay; type: cell-based, Candida albicans; conditions: pH 5.4
Description: (§1) All microbes were grown at 37 °C in Tryptic Soy Broth (TSB; Biolife, Milan, Italy) or Tryptic Soy Agar plates (TSA, Biolife, Milan, Italy). Peptides were tested at a final concentration C = 0.128, 0.064, 0.032 mg/mL, in the presence or absence of ZnCl2 or CuCl2, at a M:L molar ratio 0.9:1. Briefly, all the microbes were expanded in TSB at 37 °C under agitation for 12 h and then sub-cultured by 1:10 dilution in TSB under the same conditions until reaching OD600nm = 0.3–0.4, as measured by spectrophotometric reading using a GENESYS 10S UV–Vis spectrophotometer (Thermo Scientific, Milan, Italy), corresponding to 0.9–1.2 × 10^7 colony forming units (CFU) per mL, 1.5–2 × 10^8 CFU/mL and 2.4–3.2 × 10^8 CFU/mL, for C. albicans, S. aureus and E. coli respectively. The cultures were then centrifuged at 4500 rpm for 10 min in a SL 8 centrifuge (TX-150 Rotor) (Thermo Scientific, Milan, Italy), and the cellular pellets were washed with PBS pH 5.4. Pelletized cultures were then suspended in 10 mL of PBS pH 5.4, then the suspensions were diluted to a final concentration of 10^4 CFU/mL. Aliquots of 100 µl (corresponding to 10^3 CFU) were seeded in each well of a 96-wells plate. 3 µl of TSB at pH 5.4 were added to each well to obtain a final 1.5% TSB concentration in the culture medium. Peptides were serially diluted in PBS pH 5.4 to C = 0.257, 0.128, and 0.064 mg/mL. ZnCl2 and CuCl2 solutions were added where requested to obtain a M:L ratio 0.9:1. 100 µl of the prepared peptides ± ZnCl2/CuCl2 solutions were then added to each well, obtaining the final 0.128, 0.064 and 0.032 mg/mL peptide concentrations in a total 0.2 mL volume. PBS alone and PBS + ZnCl2/CuCl2 solutions were included as controls. The plates were incubated at 37 °C on a platform rocker with slow stirring for 3 and 24 h. At the end of the incubation times, 100 µl aliquots were taken from each sample and diluted in PBS pH 5.4 to be seeded on TSA plates. Specifically, aliquots were diluted 1:10 at 3 h, and 1:200, 1:100,000 and 1:10 at 24 h, for C. albicans, E. coli, and S. aureus respectively. After incubation for 24 h at 37 °C, grown CFUs were enumerated. Samples were assayed in triplicate in two independent experiments. Student’s t-test was used for the evaluation of significance in biological tests; a p value ≤ 0.05 was considered significant.

E. coli (ATCC 25922) = experiment: In vitro anti-E. coli CFU assay; type: cell-based, Escherichia coli; conditions: pH 5.4; for CFU decrease/increase with respect to untreated controls / mean CFU number ± S.D.: metal salt alone, one value per peptide panel
Description: as §1

S. aureus (ATCC 25293) = experiment: In vitro anti-S. aureus CFU assay; type: cell-based, Staphylococcus aureus; conditions: 3 h, pH 5.4; for mean CFU number ± S.D.: metal salt alone, one value per peptide panel
Description: as §1

[1] = metal salt alone, same concentration as used with 0.032 mg/mL peptide, 24 h, one value per peptide panel
[2] = metal salt alone, same concentration as used with 0.064 mg/mL peptide, 24 h, one value per peptide panel
[3] = same concentration as used with 0.032 mg/mL peptide, 3 h
[4] = same concentration as used with 0.032 mg/mL peptide, 24 h
[5] = same concentration as used with 0.064 mg/mL peptide, 3 h
[6] = same concentration as used with 0.064 mg/mL peptide, 24 h
[7] = same concentration as used with 0.128 mg/mL peptide, 3 h
[8] = same concentration as used with 0.032 mg/mL peptide
[9] = same concentration as used with 0.064 mg/mL peptide

[Cl][Cu][Cl] [CuCl2, reference compound]
mean CFU number ± S.D. (C. albicans (ATCC 10231); [1]): 2,184 ± 195 CFU and 1,671 ± 25 CFU and 2,558 ± 367 CFU and 1,800 ± 195 CFU | mean CFU number ± S.D. (C. albicans (ATCC 10231); [2]): 2,152 ± 228 CFU and 1,697 ± 81 CFU and 2,456 ± 236 CFU and 1,820 ± 125 CFU | mean CFU number ± S.D. (C. albicans (ATCC 10231); metal salt alone, same concentration as used with 0.128 mg/mL peptide, 24 h, one value per peptide panel): 1,816 ± 109 CFU and 2,139 ± 55 CFU and 1,360 ± 68 CFU and 1,946 ± 96 CFU | CFU number reduction by the metal salt alone, over all performed assays (E. coli (ATCC 25922); 3 h): up to 96% | CFU number reduction by the metal salt alone, over all performed assays (E. coli (ATCC 25922); 24 h): up to 96% | CFU decrease/increase with respect to untreated controls (E. coli (ATCC 25922); [3]): -36% and -42% | mean CFU number ± S.D. (E. coli (ATCC 25922); [3]): 474 ± 91 CFU and 665 ± 96 CFU | mean CFU number ± S.D. (E. coli (ATCC 25922); [4]): 160 ± 42 CFU and 256 ± 3 CFU | mean CFU number ± S.D. (E. coli (ATCC 25922); [5]): 255 ± 23 CFU and 383 ± 82 CFU | mean CFU number ± S.D. (E. coli (ATCC 25922); [6]): 93 ± 28 CFU and 47 ± 28 CFU | CFU decrease/increase with respect to untreated controls (E. coli (ATCC 25922); [7]): -95% and -92% | mean CFU number ± S.D. (E. coli (ATCC 25922); [7]): 57 ± 4 CFU and 64 ± 24 CFU | mean CFU number ± S.D. (S. aureus (ATCC 25293); [8]): 201 ± 25 CFU and 178 ± 2 CFU | mean CFU number ± S.D. (S. aureus (ATCC 25293); [9]): 170 ±17 CFU and 188 ± 62 CFU | mean CFU number ± S.D. (S. aureus (ATCC 25293); same concentration as used with 0.128 mg/mL peptide): 201 ± 23 CFU and 159 ± 22 CFU

[Cl-].[Cl-].[Zn+2] [ZnCl2, reference compound]
CFU number reduction by the metal salt alone, over all performed assays (C. albicans (ATCC 10231); 3 h): up to 64.9% | CFU number reduction by the metal salt alone, over all performed assays (C. albicans (ATCC 10231); 24 h): ≤ 94% | mean CFU number ± S.D. (C. albicans (ATCC 10231); metal salt alone, same concentration as used with 0.032 mg/mL peptide, 3 h, one value per peptide panel): 94.2 ± 23 CFU and 91 ± 25 CFU and 107 ± 13 CFU | mean CFU number ± S.D. (C. albicans (ATCC 10231); [1]): 1,915 ± 234 CFU and 1,797 ± 162 CFU and 2,249 ± 145 CFU and 1,413.7 ± 348 CFU | mean CFU number ± S.D. (C. albicans (ATCC 10231); metal salt alone, same concentration as used with 0.064 mg/mL peptide, 3 h, one value per peptide panel): 49 ± 2 CFU and 87 ± 6 CFU and 75.33 ± 25 CFU and 98 ± 15 CFU | CFU decrease/increase with respect to untreated controls (C. albicans (ATCC 10231); [2]): -36% and -40% and -38% | mean CFU number ± S.D. (C. albicans (ATCC 10231); metal salt alone, same concentration as used with 0.128 mg/mL peptide, 3 h, one value per peptide panel): 32 ± 9 CFU and 62 ± 6 CFU and 53 ± 14 CFU and 34.7 ± 9 CFU | CFU decrease/increase with respect to untreated controls (E. coli (ATCC 25922); [3]): -47% and -45% | mean CFU number ± S.D. (E. coli (ATCC 25922); [3]): 449 ± 74 CFU and 559 ± 25 CFU | CFU decrease/increase with respect to untreated controls (E. coli (ATCC 25922); [4]): -1% | mean CFU number ± S.D. (E. coli (ATCC 25922); [4]): 170 ± 14 CFU and 238 ± 16 CFU | mean CFU number ± S.D. (E. coli (ATCC 25922); [5]): 249 ± 11 CFU and 329 ± 11 CFU | CFU decrease/increase with respect to untreated controls (E. coli (ATCC 25922); [6]): -3% and -5% | mean CFU number ± S.D. (E. coli (ATCC 25922); [6]): 163 ± 47 CFU and 235 ± 6 CFU | CFU decrease/increase with respect to untreated controls (E. coli (ATCC 25922); [7]): -95% and -91% | mean CFU number ± S.D. (E. coli (ATCC 25922); [7]): 49 ± 8 CFU and 72 ± 21 CFU | mean CFU number ± S.D. (E. coli (ATCC 25922); same concentration as used with 0.128 mg/mL peptide, 24 h): 168 ± 22 CFU | CFU reduction by the metal salt alone compared to controls, over all performed assays (S. aureus (ATCC 25293)): up to 77% | mean CFU number ± S.D. (S. aureus (ATCC 25293); [8]): 178 ± 60 CFU and 121 ± 11 CFU and 125 ± 60 CFU | mean CFU number ± S.D. (S. aureus (ATCC 25293); [9]): 84 ± 13 CFU and 100 ± 11 CFU

— article PMC10600247, “Impact of C- and N-terminal protection on the stability, metal chelation and antimicrobial properties of calcitermin” (Scientific Reports, 2023)
